From patent US9302999B2, “Substituted triazoles as herbicides” (E. I. DU PONT DE NEMOURS AND COMPANY, priority 2012, dated 2016)

Key:
Type in all cases: in vivo
[1] = test system: bermudagrass (Cynodon dactylon); assay: Test C pre-/postemergence: bermudagrass
Description: (§1) Seeds of plant species selected from blackgrass (Alopecurus myosuroides), bromegrass, downy (downy bromegrass, Bromus tectorum), foxtail, green (green foxtail, Setaria viridis), ryegrass, Italian (Italian ryegrass, Lolium multiflorum), winter wheat (Triticum aestivum), wild oat (Avena fatua), galium (catchweed bedstraw, Galium aparine), bermudagrass (Cynodon dactylon), surinam grass (Brachiaria decumbens), cocklebur (common cocklebur, Xanthium strumarium), corn (Zea mays), large crabgrass (Digitaria sanguinalis), woolly cupgrass (Eriochloa villosa), foxtail, giant (giant foxtail, Setaria faberii), goosegrass (Eleusine indica), johnsongrass (Sorghum halepense), kochia (Kochia scoparia), lambsquarters (Chenopodium album), morningglory (Ipomoea coccinea), nightshade (eastern black nightshade, Solanum ptycanthum), nutsedge, yellow (yellow nutsedge, Cyperus esculentus), pigweed (Amaranthus retroflexus), ragweed (common ragweed, Ambrosia elation), soybean (Glycine max), common (oilseed) sunflower (Helianthus annuus), Russian thistle (Salsola kali) and velvetleaf (Abutilon theophrasti) were planted into a blend of loam soil and sand and treated preemergence with test chemicals formulated in a non-phytotoxic solvent mixture which included a surfactant.
(§2) At the same time, plants selected from these crop and weed species and also barley (winter barley, Hordeum vulgare), canarygrass (Phalaris minor), chickweed (common chickweed, Stellaria media) windgrass (Apera spica-venti) and deadnettle (henbit deadnettle, Lamium amplexicaule) were planted in pots containing Redi-Earth® planting medium (Scotts Company, 14111 Scottslawn Road, Marysville, Ohio 43041) comprising spaghnum peat moss, vermiculite, wetting agent and starter nutrients and treated with postemergence applications of test chemicals formulated in the same manner. Plants ranged in height from 2 to 18 cm (1- to 4-leaf stage) for postemergence treatments.
(§3) Treated plants and controls were maintained in a greenhouse for 13 to 15 days, after which time all species were compared to controls and visually evaluated. Plant response ratings, summarized in Table C, are based on a scale of 0 to 100 where 0 is no effect and 100 is complete control. A dash (-) response means no test result.

[2] = test system: cocklebur (common cocklebur, Xanthium strumarium); assay: Test C pre-/postemergence: cocklebur
Description: as §1, §2, §3

[3] = test system: common (oilseed) sunflower (Helianthus annuus); assay: Test C pre-/postemergence: sunflower; details: Preemergence
Description: as §1, §2, §3

[4] = test system: bromegrass, downy (downy bromegrass, Bromus tectorum); assay: Test C pre-/postemergence: bromegrass, downy
Description: as §1, §2, §3

[5] = test system: surinam grass (Brachiaria decumbens); assay: Test C pre-/postemergence: surinam grass
Description: as §1, §2, §3

[6] = test system: goosegrass (Eleusine indica); assay: Test C pre-/postemergence: goosegrass
Description: as §1, §2, §3

[7] = test system: woolly cupgrass (Eriochloa villosa); assay: Test C pre-/postemergence: woolly cupgrass
Description: as §1, §2, §3

[8] = test system: deadnettle (henbit deadnettle, Lamium amplexicaule); assay: Test C postemergence: deadnettle
Description: as §2, §3

[9] = test system: canarygrass (Phalaris minor); assay: Test C postemergence: canarygrass
Description: as §2, §3

[10] = test system: windgrass (Apera spica-venti); assay: Test C postemergence: windgrass
Description: as §2, §3

[11] = Preemergence, 31 g ai/ha, scale of 0 to 100, 0 is no effect, 100 is complete control
[12] = Preemergence, 62 g ai/ha, scale of 0 to 100, 0 is no effect, 100 is complete control
[13] = Preemergence, 125 g ai/ha, scale 0 to 100, 0 no effect, 100 complete control
[14] = Preemergence, 250 g ai/ha, scale 0 to 100, 0 no effect, 100 complete control
[15] = 125 g ai/ha, scale 0 to 100, 0 no effect, 100 complete control
[16] = 31 g ai/ha, scale 0 to 100 (0 no effect, 100 complete control)
[17] = 62 g ai/ha, scale 0 to 100 (0 no effect, 100 complete control)
[18] = Postemergence, 31 g ai/ha, scale 0 to 100 (0 no effect, 100 complete control)
[19] = Postemergence, 125 g ai/ha, scale 0 to 100, 0 no effect, 100 complete control
[20] = Postemergence, 250 g ai/ha, scale 0 to 100
[21] = Postemergence, 62 g ai/ha, scale 0 to 100 (0 no effect, 100 complete control)

Cc1nn(-c2ccc(F)cc2F)nc1Oc1ccnc(C(F)(F)F)c1 [Compound 146]
Plant response rating, Bermudagrass [1, 11]: 98
Plant response rating, Bermudagrass [1, 12]: 98
Plant response rating, Bermudagrass [1, 13]: 98
Plant response rating, Bermudagrass [1, 14]: 98
Plant response rating, Cocklebur [2, 11]: 0
Plant response rating, Cocklebur [2, 12]: 0
Plant response rating, Cocklebur [2, 13]: 0
Plant response rating, Cocklebur [2, 14]: 0
Plant response rating, Sunflower ([3]; 31 g ai/ha, scale of 0 to 100, 0 is no effect, 100 is complete control): 10
Plant response rating, Sunflower ([3]; 62 g ai/ha, scale of 0 to 100, 0 is no effect, 100 is complete control): 20
Plant response rating, Sunflower [3, 15]: 30
Plant response rating, Sunflower ([3]; 250 g ai/ha, scale 0 to 100, 0 no effect, 100 complete control): 35
Plant response rating, Bromegrass, Downy [4, 11]: 0
Plant response rating, Bromegrass, Downy [4, 12]: 0
Plant response rating, Bromegrass, Downy [4, 13]: 15
Plant response rating, Bromegrass, Downy [4, 14]: 80
Plant response rating, Surinam Grass [5, 11]: 10
Plant response rating, Surinam Grass [5, 12]: 20
Plant response rating, Surinam Grass [5, 13]: 100
Plant response rating, Surinam Grass [5, 14]: 100
Plant response rating, Goosegrass [6, 11]: 70
Plant response rating, Goosegrass [6, 12]: 85
Plant response rating, Goosegrass [6, 13]: 100
Plant response rating, Goosegrass [6, 14]: 100
Plant response rating, Cupgrass, Woolly [7, 11]: 40
Plant response rating, Cupgrass, Woolly [7, 12]: 45
Plant response rating, Cupgrass, Woolly [7, 13]: 90
Plant response rating, Cupgrass, Woolly [7, 14]: 100

Cc1nn(-c2ccnc(Cl)c2)nc1Cc1ccnc(C(F)(F)F)c1 [Compound 141]
Plant response rating, Deadnettle [8, 16]: 100
Plant response rating, Deadnettle [8, 17]: 100
Plant response rating, Deadnettle [8, 15]: 100
Plant response rating, Deadnettle ([8]; 250 g ai/ha, scale 0 to 100): 100
Plant response rating, Bermudagrass [1, 18]: 15
Plant response rating, Bermudagrass [1, 19]: 55
Plant response rating, Bermudagrass [1, 20]: 95
Plant response rating, Cocklebur [2, 18]: 5
Plant response rating, Canarygrass [9, 16]: 20
Plant response rating, Canarygrass [9, 17]: 25
Plant response rating, Canarygrass [9, 15]: 50
Plant response rating, Canarygrass ([9]; 250 g ai/ha, scale 0 to 100): 80
Plant response rating, Bromegrass, Downy [4, 18]: 25
Plant response rating, Bromegrass, Downy [4, 21]: 30
Plant response rating, Bromegrass, Downy [4, 19]: 30
Plant response rating, Bromegrass, Downy [4, 20]: 45
Plant response rating, Surinam Grass [5, 18]: 15
Plant response rating, Surinam Grass [5, 21]: 15
Plant response rating, Surinam Grass [5, 19]: 30
Plant response rating, Surinam Grass [5, 20]: 30
Plant response rating, Goosegrass [6, 18]: 35
Plant response rating, Goosegrass [6, 21]: 40
Plant response rating, Goosegrass [6, 19]: 50
Plant response rating, Goosegrass [6, 20]: 60
Plant response rating, Cupgrass, Woolly [7, 18]: 15
Plant response rating, Cupgrass, Woolly [7, 21]: 20
Plant response rating, Cupgrass, Woolly [7, 19]: 30
Plant response rating, Cupgrass, Woolly [7, 20]: 45
Plant response rating, Windgrass [10, 16]: 50
Plant response rating, Windgrass [10, 17]: 50
Plant response rating, Windgrass [10, 15]: 55
Plant response rating, Windgrass ([10]; 250 g ai/ha, scale 0 to 100): 60

FC(F)(F)c1ccc(-n2nc(Cl)c(Cc3ccnc(C(F)(F)F)c3)n2)cc1 [Compound 28]
Plant response rating, Deadnettle [8, 16]: 40
Plant response rating, Deadnettle [8, 17]: 80
Plant response rating, Deadnettle [8, 15]: 90
Plant response rating, Deadnettle ([8]; 250 g ai/ha, scale 0 to 100): 100
Plant response rating, Bermudagrass [1, 18]: 10
Plant response rating, Bermudagrass [1, 21]: 15
Plant response rating, Bermudagrass [1, 19]: 20
Plant response rating, Bermudagrass [1, 20]: 25
Plant response rating, Cocklebur [2, 18]: 10
Plant response rating, Cocklebur [2, 21]: 15
Plant response rating, Cocklebur [2, 19]: 20
Plant response rating, Cocklebur [2, 20]: 25
Plant response rating, Canarygrass [9, 16]: 30
Plant response rating, Canarygrass [9, 17]: 50
Plant response rating, Canarygrass [9, 15]: 60
Plant response rating, Canarygrass ([9]; 250 g ai/ha, scale 0 to 100): 90
Plant response rating, Bromegrass, Downy [4, 18]: 5
Plant response rating, Bromegrass, Downy [4, 21]: 25
Plant response rating, Bromegrass, Downy [4, 19]: 35
Plant response rating, Bromegrass, Downy [4, 20]: 35
Plant response rating, Surinam Grass [5, 18]: 5
Plant response rating, Surinam Grass [5, 21]: 10
Plant response rating, Surinam Grass [5, 19]: 15
Plant response rating, Surinam Grass [5, 20]: 15
Plant response rating, Goosegrass [6, 18]: 20
Plant response rating, Goosegrass [6, 21]: 20
Plant response rating, Goosegrass [6, 19]: 25
Plant response rating, Goosegrass [6, 20]: 45
Plant response rating, Cupgrass, Woolly [7, 18]: 20
Plant response rating, Cupgrass, Woolly [7, 21]: 30
Plant response rating, Cupgrass, Woolly [7, 19]: 35
Plant response rating, Cupgrass, Woolly [7, 20]: 40
Plant response rating, Windgrass [10, 16]: 30
Plant response rating, Windgrass [10, 17]: 45
Plant response rating, Windgrass [10, 15]: 50
Plant response rating, Windgrass ([10]; 250 g ai/ha, scale 0 to 100): 50
